Legend:
[1] = target: T1, Probable G-protein coupled receptor 139 (Homo sapiens, UniProt Q6DWJ6); assay: Agonist activity at human GPR139 expressed in CHO-K1 cells assessed as increase in calcium flux by calcium 5 dye based FLIPR assay; assay type: functional, cell-based
T1 sequence (Q6DWJ6 whole entry): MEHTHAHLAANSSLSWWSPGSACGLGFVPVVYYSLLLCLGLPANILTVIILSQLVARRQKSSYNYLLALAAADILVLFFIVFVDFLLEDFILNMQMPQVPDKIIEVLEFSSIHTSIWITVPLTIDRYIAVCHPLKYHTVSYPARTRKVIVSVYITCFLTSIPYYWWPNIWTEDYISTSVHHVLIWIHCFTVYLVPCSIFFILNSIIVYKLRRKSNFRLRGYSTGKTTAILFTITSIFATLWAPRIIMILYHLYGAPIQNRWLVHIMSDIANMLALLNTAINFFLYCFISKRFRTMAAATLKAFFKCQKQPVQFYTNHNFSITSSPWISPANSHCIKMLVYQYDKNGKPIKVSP

[2] = target: T2, Probable G-protein coupled receptor 139 (Homo sapiens) (UniProt Q6DWJ6); assay: Agonist activity at human GPR139 expressed in CHO-K1 cells assessed as increase in calcium flux by calcium 5 dye based FLIPR assay relative to JNJ63533054; assay type: functional, cell-based; conditions: filed as agonist
T2 sequence (whole entry): T1 sequence (Q6DWJ6 whole entry)

[3] = target: T3, Probable G-protein coupled receptor 139 (Rattus norvegicus, UniProt P0C0W8); assay: Agonist activity at rat GPR139 expressed in CHO-K1 cells assessed as increase in calcium flux by calcium 5 dye based FLIPR assay; assay type: cell-based
T3 sequence (P0C0W8 whole entry): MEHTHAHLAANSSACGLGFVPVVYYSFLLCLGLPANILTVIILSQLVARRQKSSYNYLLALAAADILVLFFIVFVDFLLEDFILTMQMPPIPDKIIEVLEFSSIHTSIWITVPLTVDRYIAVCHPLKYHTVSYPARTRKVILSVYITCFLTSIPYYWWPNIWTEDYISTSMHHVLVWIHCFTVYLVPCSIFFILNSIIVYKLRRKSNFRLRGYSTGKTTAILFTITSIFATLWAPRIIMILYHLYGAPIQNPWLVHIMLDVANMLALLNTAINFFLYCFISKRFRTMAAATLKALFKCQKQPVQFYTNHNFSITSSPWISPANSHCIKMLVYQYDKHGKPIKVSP

[4] = target: T4, Probable G-protein coupled receptor 139 (Rattus norvegicus) (UniProt P0C0W8); assay: Agonist activity at rat GPR139 expressed in CHO-K1 cells assessed as increase in calcium flux by calcium 5 dye based FLIPR assay relative to JNJ63533054; assay type: cell-based
T4 sequence (whole entry): T3 sequence (P0C0W8 whole entry)

[5] = target: T1, Probable G-protein coupled receptor 139; assay: Agonist activity at human GPR139 expressed in CHO-K1 cells assessed as induction of beta-arrestin 2 recruitment incubated for 90 mins by PathHunter assay; assay type: cell-based
[6] = target: T2, Probable G-protein coupled receptor 139 (Homo sapiens); assay: Agonist activity at human GPR139 expressed in CHO-K1 cells assessed as induction of beta-arrestin 2 recruitment incubated for 90 mins by PathHunter assay relative to JNJ63533054; assay type: cell-based

SMILES	EC50 [1]	Emax [2]	EC50 ([3]; cho-k1)	Emax [4]	EC50 ([5]; cho-k1)	Emax [6]	EC50 [3]	Emax ([4]; filed as agonist)	Emax ([6]; filed as agonist)	EC50 [5]	EC50 ([1]; cho-k1)
C[C@H](NC(=O)Cn1nc2c(NCC(F)F)ccnn2c1=O)c1ccc(OC(F)(F)F)cc1	< 1 nM	> 80%	1 nM	25%	1 nM	25%	–	–	–	–	–
C[C@H](NC(=O)Cn1nc2c(N3CCOCC3)cccn2c1=O)c1ccc(Cl)c(F)c1	< 1 nM	> 80%	–	–	10 nM	–	< 1 nM	50%	50%	–	–
Cc1ccn2c(=O)n(CC(=O)N[C@@H](C)c3ccc(Cl)c(F)c3)nc2c1	< 1 nM	> 80%	–	–	1 nM	–	< 1 nM	> 80%	> 80%	–	–
Cc1cnn2c(=O)n(CC(=O)N[C@@H](C)c3ccc(Cl)c(F)c3)nc2c1C	< 1 nM	> 80%	–	–	–	–	< 1 nM	> 80%	50%	< 1 nM	–
C[C@H](NC(=O)Cn1nc2cc(C3CC3)cnn2c1=O)c1ccc(Cl)c(F)c1	< 1 nM	> 80%	–	–	1 nM	–	< 1 nM	> 80%	> 80%	–	–
COc1cccc2nn(CC(=O)N[C@@H](C)c3ccc(OC(F)(F)F)cc3)c(=O)n12	< 1 nM	> 80%	1 nM	–	1 nM	–	–	50%	> 80%	–	–
COc1ccn2c(=O)n(CC(=O)N[C@@H](C)c3ccc(Cl)c(F)c3)nc2n1	< 1 nM	> 80%	–	–	1 nM	–	< 1 nM	> 80%	> 80%	–	–
COc1nc2nn(CC(=O)N[C@@H](C)c3ccc(Cl)c(F)c3)c(=O)n2cc1C	< 1 nM	> 80%	–	–	–	–	< 1 nM	> 80%	> 80%	< 1 nM	–
COc1ccn2c(=O)n(CC(=O)N[C@@H](C)c3ccc(OC(F)(F)F)cc3)nc2n1	< 1 nM	50%	1 nM	25%	–	25%	–	–	–	< 1 nM	–
C[C@H](NC(=O)Cn1nc2cc(Cl)cnn2c1=O)c1ccc(OC(F)(F)F)cc1	–	> 80%	1 nM	–	–	25%	–	50%	–	≥ 100 nM	1 nM
C[C@H](NC(=O)Cn1nc2ncccn2c1=O)c1ccc(C2CC2)cc1	≥ 100 nM	50%	–	< 25%	–	< 25%	≥ 100 nM	–	–	≥ 100 nM	–
Cc1cc(Cl)ccc1[C@H](C)NC(=O)Cn1nc2cccnn2c1=O	–	> 80%	1 nM	–	–	–	–	50%	50%	≥ 100 nM	1 nM
COc1cccc2nn(CC(=O)N[C@@H](C)c3ccc(C)cc3)c(=O)n12	< 1 nM	> 80%	1 nM	–	1 nM	25%	–	50%	–	–	–
CC(NC(=O)Cn1nc2ccccn2c1=O)c1ncc(Cl)cc1F (configuration not stated)	≥ 100 nM	50%	–	< 25%	–	25%	≥ 100 nM	–	–	≥ 100 nM	–
C[C@H](NC(=O)Cn1nc2cc(N3CCC[C@H](O)C3)ccn2c1=O)c1ccc(OC(F)(F)F)cc1	–	> 80%	1 nM	–	–	–	–	> 80%	> 80%	≥ 100 nM	1 nM
Cc1ccn2c(=O)n(CC(=O)N[C@@H](C)c3ccc(OC(F)(F)F)cc3)nc2c1	< 1 nM	> 80%	–	–	1 nM	–	< 1 nM	50%	> 80%	–	–
C[C@H](NC(=O)Cn1nc2cc(N3CCC[C@@H](O)C3)ccn2c1=O)c1ccc(OC(F)(F)F)cc1	–	> 80%	1 nM	–	–	–	–	> 80%	> 80%	≥ 100 nM	1 nM
Cc1ccc([C@H](C)NC(=O)Cn2nc3c(F)cccn3c2=O)cc1	–	> 80%	1 nM	–	–	–	–	50%	50%	≥ 100 nM	1 nM
C[C@H](NC(=O)Cn1nc2cc(N3CCOCC3)cnn2c1=O)c1ccc(Cl)c(F)c1	–	> 80%	1 nM	–	–	25%	–	> 80%	–	≥ 100 nM	1 nM

SMILES	EC50 [1]	Emax [2]	EC50 ([3]; cho-k1)	Emax [4]	EC50 ([5]; cho-k1)	Emax [6]	EC50 [3]	Emax ([4]; filed as agonist)	Emax ([6]; filed as agonist)	EC50 [5]	EC50 ([1]; cho-k1)
COc1ccc2nn(CC(=O)N[C@@H](C)c3ccc(OC(F)(F)F)cc3)c(=O)n2c1	< 1 nM	50%	1 nM	–	–	–	–	25%	50%	< 1 nM	–
Cc1ncc([C@H](C)NC(=O)Cn2nc3cc(Cl)ccn3c2=O)cc1F	–	> 80%	1 nM	25%	10 nM	–	–	–	50%	–	1 nM
COc1ccc2nn(CC(=O)N[C@@H](C)c3ccc(Cl)c(F)c3)c(=O)n2n1	< 1 nM	> 80%	1 nM	–	–	–	–	50%	50%	< 1 nM	–
Cc1ccc([C@H](C)NC(=O)Cn2nc3ccc(F)cn3c2=O)cc1F	< 1 nM	> 80%	–	–	1 nM	–	< 1 nM	50%	50%	–	–
Cc1cnc2nn(CC(=O)N[C@@H](C)c3ccc(OC(F)(F)F)c(F)c3)c(=O)n2c1	–	> 80%	10 nM	25%	1 nM	–	–	–	50%	–	1 nM
Cc1ccc([C@H](C)NC(=O)Cn2nc3ccccn3c2=O)cc1Cl	< 1 nM	> 80%	1 nM	–	1 nM	–	–	> 80%	> 80%	–	–
COc1cnc2nn(CC(=O)N[C@@H](C)c3ccc(OC(F)(F)F)cc3)c(=O)n2c1	–	> 80%	–	< 25%	1 nM	25%	≥ 100 nM	–	–	–	1 nM
O=C(Cn1nc2ccc(F)cn2c1=O)NC1(c2ccc(Cl)cc2)CC1	–	> 80%	–	25%	–	25%	≥ 100 nM	–	–	≥ 100 nM	10 nM
C[C@H](NC(=O)Cn1nc2ccc(F)cn2c1=O)c1ccc(C(F)(F)F)cc1	–	> 80%	1 nM	–	–	–	–	50%	50%	< 1 nM	1 nM
CC[C@H](NC(=O)Cn1nc2cccnn2c1=O)c1ccc(Cl)c(F)c1	–	> 80%	1 nM	–	–	25%	–	> 80%	–	≥ 100 nM	1 nM
Cc1ccnn2c(=O)n(CC(=O)N[C@@H](C)c3ccc(Cl)c(F)c3)nc12	< 1 nM	> 80%	1 nM	–	10 nM	–	–	> 80%	> 80%	–	–
CNc1cccn2c(=O)n(CC(=O)N[C@@H](C)c3ccc(C)cc3)nc12	< 1 nM	> 80%	–	–	1 nM	–	< 1 nM	> 80%	> 80%	–	–
Cc1cc([C@H](C)NC(=O)Cn2nc3ccccn3c2=O)ccc1Cl	< 1 nM	> 80%	1 nM	–	1 nM	–	–	> 80%	> 80%	–	–
C[C@H](NC(=O)Cn1nc2ccc(C#N)cn2c1=O)c1ccc(Cl)c(F)c1	< 1 nM	> 80%	1 nM	–	1 nM	–	–	50%	> 80%	–	–
O=C(Cn1nc2cccnn2c1=O)NC1(c2ccc(Cl)cc2)CC1	≥ 100 nM	50%	–	–	–	< 25%	≥ 100 nM	50%	–	≥ 100 nM	–
Cc1cnn2c(=O)n(CC(=O)N[C@@H](C)c3ccc(OC(F)(F)F)cc3)nc2c1	–	> 80%	–	–	–	–	≥ 100 nM	50%	50%	≥ 100 nM	1 nM
COc1ccc2nn(CC(=O)N[C@@H](C)c3ccc(C)cc3)c(=O)n2c1	–	> 80%	–	25%	–	25%	< 1 nM	–	–	< 1 nM	1 nM
Cc1ccc([C@H](C)NC(=O)Cn2nc3ncccn3c2=O)cc1Cl	–	> 80%	10 nM	–	–	–	–	> 80%	> 80%	≥ 100 nM	1 nM

— ChEMBL document CHEMBL4739716, “Gpr139 receptor modulators” (2020)
